# Measurements published in patent EP1678287B1, “DISPENSER CONTAINING LIQUID BLEACHING COMPOSITION” (Reckitt Benckiser (UK) Limited, priority 2003, dated 2005).
# Assay: Storage stability of MMAM in an aqueous hydrogen peroxide composition with the surfactant under test
# Assay type: physicochemical
# Conditions: 2 weight % Dowanol PnB added to the compositions of Example 1
# Method: In this example, a number of surfactants were tested for their ability to stabilise methyl morpholinium acetonitrile methylsulphate (MMAM) in the presence of hydrogen peroxide.
# The surfactant under test was added to an aqueous composition containing 1 weight % H2O2 and 1.1 weight % MMAM (1.7 weight % Sokalan BM) The active amount of surfactant in the composition was 1 weight %. In a control sample, no surfactant was added.
smiles,measurement,value
"CCCCOCC(C)O (stereo not shown) [Dowanol PnB, n-butyl monoether of propylene glycol]",effect of solvent on stability,did not have a significant effect on stability
